Measured values as given in publication PMC2698131 (Journal of biomolecular screening, 2009).
Read-outs that look alike come from different tables or passages of the source.

Experiments:
[1] = target: T1, LARG-stimulated RhoA nucleotide binding (Homo sapiens, UniProt Q9NZN5); format: biochemical; settings: 20 minutes; for Hill Slope [TR-GTPγS]: BODIPY-TR-GTPγS fluorescence polarization dose-response; for IC50: BODIPY-TR-GTPγS 500 nM, LARG 100 nM, RhoA (C189S) 2 μM
T1 sequence (Q9NZN5 765-1138): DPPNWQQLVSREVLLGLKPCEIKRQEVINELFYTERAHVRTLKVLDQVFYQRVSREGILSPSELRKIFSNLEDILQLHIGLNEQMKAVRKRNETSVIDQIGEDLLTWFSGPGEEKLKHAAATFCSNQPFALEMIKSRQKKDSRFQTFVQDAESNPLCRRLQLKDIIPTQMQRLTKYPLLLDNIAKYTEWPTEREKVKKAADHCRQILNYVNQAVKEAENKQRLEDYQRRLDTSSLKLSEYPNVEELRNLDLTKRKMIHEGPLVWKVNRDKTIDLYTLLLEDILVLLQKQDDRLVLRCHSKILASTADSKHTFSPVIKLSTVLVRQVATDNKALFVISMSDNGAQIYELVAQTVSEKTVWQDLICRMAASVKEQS

[2] = target: T2, LARG-stimulated RhoA [35S] GTPγS binding (Homo sapiens, UniProt Q9NZN5); assay: LARG-stimulated RhoA [35S] GTPγS guanine nucleotide binding assay; format: biochemical; settings: LARG 2 nM, RhoA (C189S) 500 nM, 25 minute time point
T2 sequence (Q9NZN5 765-1138): T1 sequence (Q9NZN5 765-1138)

SMILES | Hill Slope [TR-GTPγS] [1] | IC50 ([1]; IC50 (μM) [TR-GTPγS]) | IC50 ([2]; IC50 (μM) [GTPγS35]) | Hill Slope [GTPγS35] [2] | IC50 ([1]; read-out: IC50 (μM) [TR-GTPγS]) | IC50 ([2]; read-out: IC50 (μM) [GTPγS35])
N=C1S/C(=C\c2ccc(-c3ccccc3[N+](=O)[O-])o2)C(=O)N1c1ccc2c(c1)OCO2 [CCG-13528, (5Z)-3-(2H-1,3-benzodioxol-5-yl)-2-imino-5-{[5-(2-nitrophenyl)furan-2-yl]methylidene}-1,3-thiazolidin-4-one] | -3.4 | 39.8 µM | 4.6 µM | -1.8 |  | 
O=c1oc2cc(O)ccc2cc1-c1csc(-c2ccc(-c3ccccc3)cc2)n1 [CCG-7167] | -1.8 |  |  | -2.2 | 65.1 µM | 4.2 µM
O=C1NC(=S)NC(=O)C1=Cc1ccc(-c2ccc(S(=O)(=O)Nc3nccs3)cc2)o1 [CCG-14631, 4-{5-[(4,6-dioxo-2-sulfanylidene-1,3-diazinan-5-ylidene)methyl]furan-2-yl}-N-(1,3-thiazol-2-yl)benzene-1-sulfonamide] | -0.7 | 3.1 µM | 7 µM | -1.1 |  | 
Nc1ccc(O)c(-c2nc3cc(N)ccc3s2)c1 [CCG-5849, 4-amino-2-(5-amino-1,3-benzothiazol-2-yl)phenol] | -1.6 | 10.7 µM |  |  |  | 
Cc1cccc(NCC(=O)N/N=C\c2c(Br)cc(Br)c(O)c2Br)c1 [CCG-14113, (N′Z)-2-[(3-methylphenyl)amino]-N′-[(2,4,6-tribromo-3-hydroxyphenyl)methylidene]acetohydrazide] | -1.0 | 32.2 µM | 32.8 µM | -7.1 |  | 
